Where two headings read alike, the source gives them in different places.
Legend:
[1] = test system: EAE C57BL/6J mice; assay: Experimental autoimmune encephalomyelitis (EAE) mouse model of multiple sclerosis; format: in vivo; conditions: 75 mg/kg orally BID for 14 days
Protocol: C57BL/6 mice are the most commonly used strain. For the induction of EAE, typically, the immunogenic epitope MOG35-55 of myelin oligodendrocyte glycoprotein is suspended in complete Freund's adjuvant (CFA) prior to immunization. Thereafter, pertussis toxin (PT) is applied on the day of immunization and a couple of days later to facilitate the induction of EAE. Animals are assessed by body weight change, EAE scoring and histopathological examination for both inflammation and demyelination.
Compound (2) was dissolved at a dose level of 75 mg/kg with a final concentration of 20 mg/ml (in 66.6% PEG/water), and administered orally BID (i.e. every 12 hours) to C57BL/6J mice at a dose volume of 3.75 ml/kg. Treatment was started concomitant with the first signs of disease (around days 10-12) and continued for 14 days. The animals were evaluated for general clinical signs, body weight change and neurological score. After termination of treatment the animals were sacrificed, brains and spinal cords were collected, fixed in formalin 4% and processed for staining with haematoxylin and eosin.

[2] = test system: animal models of acute pancreatitis; conditions: Mukherjee et al., Gut Online, 12 Jun. 2015; cited from earlier work
[3] = Pharmacokinetics in mice, oral dose; format: in vivo, mice (strain FVB/N); conditions: oral 10 mg/kg
Protocol: Test compounds were administered to rodents (mice or rats) either orally, subcutaneously or intravenously. To determine blood or plasma concentrations blood samples were taken at different time points and analysed for the concentration of test compound by LC/MS. Brain concentrations were measured by sacrificing animals and LC/MS analysis of brain homogenate. FIG. 2 illustrates graphs for the concentration (ng/ml) Compound (2) in blood, blood plasma and in the brain at 30 minutes to 7 hours after oral treatment.

[4] = test system: SH-SY5Y cells; assay: Thapsigargin treated cell death assay in SH-SY5Y cells; format: cell-based, human; conditions: compound at 10 μM; positive = protection from cell death, negative = compound toxicity
Method in brief: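 SH-SY5Y neuroblastoma cells given compound (typically 1, 3 and 10 μM, triplicate) 30 min before thapsigargin, with cyclosporin A (3 and 10 μM) as positive control. Cell death read kinetically over 24 h by CellTox Green DNA-binding fluorescence; values are % recovery at 10 μM, usually at 8 h, positive meaning protection.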

[5] = vs vehicle group, not statistically significant

For `CC(C)[C@@H]1OC(=O)C(C)(C)/C=C/c2ccc3ccc(nc3c2)N(C)NC(=O)[C@@H]2CCCN(N2)C(=O)[C@H](C)NC1=O` [Compound (2)], which “Extent of spinal cord damage” value ([1]; vs untreated control, FIG. 4) is on record?
Its value is “significant reduction”.

What about the Body weight gain [1, 5] of the same molecule?
The Body weight gain was “better body weight gain”.

What about the Clinical score [1, 5] of the same molecule?
The Clinical score was “reduction in the clinical score”.

What about the “Protection in animal models of acute pancreatitis” value [2] of the same molecule?
The value was “protective”.

And the Kp ([3]; FVB/N, mouse, brain and blood)?
Its Kp is 0.72.

And the Tmax ([3]; FVB/N, mouse, brain, read-out: Tmax Brain)?
Its Tmax is 7 h.

And the Cmax ([3]; FVB/N, mouse, plasma, read-out: Cmax Plasma)?
Its Cmax is 582 ng/mL.

What about the half-life ([3]; FVB/N, mouse, plasma, read-out: T1/2 Plasma (converted)) of the same molecule?
Its half-life is 3 h.

And the Tmax ([3]; FVB/N, mouse, plasma, read-out: Tmax Plasma)?
Its Tmax is 0.5 h.

And the Cmax ([3]; FVB/N, mouse, whole blood, read-out: Cmax Whole blood)?
Its Cmax is 1490 ng/mL.

What about the half-life ([3]; FVB/N, mouse, whole blood, read-out: T1/2 Whole blood (converted)) of the same molecule?
The half-life was 5.45 h.

And the Tmax ([3]; FVB/N, mouse, whole blood, read-out: Tmax Whole blood)?
Its Tmax is 0.5 h.

And the “AUC0-t Plasma” value [3]?
The value was 3180 ng/mL/h.

What about the “AUC0-t Whole blood” value [3] of the same molecule?
Its value is 12500 ng/mL/h.

And the Blood/plasma [3]?
Its Blood/plasma is 2.87 Ratio.

What about the “Cmax Brain” value [3] of the same molecule?
The value was 297 ng/mL.

What about the “SYSY [10 μM] % recovery” value [4] of the same molecule?
The value was 40.4%.

— patent US20250243219A1, “MACROCYCLIC COMPOUNDS AND USES THEREOF” (Cypralis Limited, priority 2022, published 2025)
